Measured values as given in US8399429B2, “Uracyl cyclopropyl nucleotides” (Janssen Products, LP, priority 2008, dated 2013).

Tests used:
[1] = Cellular toxicity in Huh7-CMV-Luc replicon assay; type: cell-based; conditions: human, Huh7-CMV-Luc cells, three days incubation, Luc activity; read-out: CC50 (μM) (Huh-7)
Method: Cellular toxicity was determined in the Huh7-CMV-Luc replicon assay. Replicon cells (2500 cells/well), stably transformed with a luciferase reporter gene under control of the cytomegalovirus (CMV) constitutive promotor, were cultured in the presence or absence of test compound concentrations. After three days of incubation at 37° C. in a humidified 5% CO2 atmosphere, cell proliferation was quantified by measuring the Luc activity, and expressed as CC50 values (cytotoxicity, 50% inhibitory concentration of cell growth). Tests were performed in 384-well plates.

[2] = test system: wild type human immunodeficiency virus (HIV) strain IIIB; assay: HIV assay in MT4 LTR-EGFP cells; type: cell-based, HIV-1; conditions: Human immunodeficiency virus 1, IIIB, 72 h, three days after infection
Method: (§1) Compounds of the invention were tested for their potency against wild type human immunodeficiency virus (HIV). Antiviral activity was evaluated using a cellular assay performed according to the following procedure. The human T-cell line MT4 was engineered with Green Fluorescent Protein (GFP) and a HIV-specific promoter, HIV-1 long terminal repeat (LTR). This cell line, designated MT4 LTR-EGFP, can be used for the in vitro evaluation of anti-HIV activity of investigational compounds. In HIV-1 infected cells, the Tat protein is produced, which upregulates the LTR promotor and eventually leads to stimulation of the GFP reporter production, allowing to measure ongoing HIV-infection fluorometrically. Effective concentration values such as 50% effective concentration (EC50) can be determined and are usually expressed in μM. An EC50 value is defined as the concentration of test compound that reduces the fluorescence of HIV-infected cells by 50%. Monitoring of HIV-1 infection was done using a scanning microscope. Image analysis allows very sensitive detection of viral infection. Measurements were done before cell necrosis, which usually takes place about five days after infection, in particular measurements were performed three days after infection. The column IIIB in the table list the EC50 values against the wild type strain IIIB.

[3] = test system: HCV replicon (Huh-7 luc/neo, NS3-NS5B of HCV type 1b); assay: HCV replicon assay (Huh-Luc, luciferase readout); type: cell-based; conditions: Huh-Luc cells, HCV type 1b replicon, three days incubation, luciferase activity
Text: The compounds of formula I were examined for activity in the inhibition of HCV RNA replication in a cellular assay aimed at identifying compounds that inhibit a HCV functional cellular replicating cell line, also known as HCV replicons. The cellular assay was based on a bicistronic expression construct, as described by Lohmann et al. (1999), Science vol. 285 pp. 110-113 with modifications described by Krieger et al. (2001), Journal of Virology 75: 4614-4624, in a multi-target screening strategy.
The assay utilized the stably transfected cell line Huh-7 luc/neo (hereafter referred to as Huh-Luc). This cell line harbors an RNA encoding a bicistronic expression construct comprising the wild type NS3-NS5B regions of HCV type 1b translated from an Internal Ribosome Entry Site (IRES) from encephalomyocarditis virus (EMCV), preceded by a reporter portion (FfL-luciferase), and a selectable marker portion (neoR, neomycine phosphotransferase). The construct is bordered by 5′ and 3′ NTRs (non-translated regions) from HCV type 1b. Continued culture of the replicon cells in the presence of G418 (neo^R) is dependent on the replication of the HCV RNA. The stably transfected replicon cells that express HCV RNA, which replicates autonomously and to high levels, encoding inter alia luciferase, were used for screening the antiviral compounds.
The replicon cells were plated in 384 well plates in the presence of the test and control compounds which were added in various concentrations. Following an incubation of three days, HCV replication was measured by assaying luciferase activity (using standard luciferase assay substrates and reagents and a Perkin Elmer ViewLux™ ultraHTS microplate imager). Replicon cells in the control cultures have high luciferase expression in the absence of any inhibitor. The inhibitory activity of the compound on luciferase activity was monitored on the Huh-Luc cells, enabling a dose-response curve for each test compound. EC50 values were then calculated, which value represents the amount of the compound required to decrease the level of detected luciferase activity by 50%, or more specifically, the ability of the genetically linked HCV replicon RNA to replicate.

[4] = Cellular toxicity in the HIV cell-line (MT-4); type: cell-based, human; conditions: human
Method: as §1
Also the HIV activity is given (EC50 HIV (μM)) and the cellular toxicity in the HIV cell-line (CC50 (μM) (MT-4)).

| Compound | CC50 at 3 days [1] [µM] | EC50 [2] [µM] | EC50 [3] [µM] | CC50 [4] [µM] | EC50 ([3]; Hepatitis C virus, Huh-7, 72 h) [µM] |
| --- | --- | --- | --- | --- | --- |
| C[C@H](NP(=O)(OC[C@H]1O[C@@H](n2ccc(=O)[nH]c2=O)C2(CC2)[C@@H]1O)Oc1ccc(Cl)cc1)C(=O)OCc1ccccc1 (single isomer, unassigned) [Compound 7a] | 58.4 | > 60 | 10.9 | > 50 | – |
| C[C@H](NP(=O)(OC[C@H]1O[C@@H](n2ccc(=O)[nH]c2=O)C2(CC2)[C@@H]1O)Oc1cccc2ccccc12)C(=O)OCc1ccccc1 (stereo partly drawn) [Compound 1] | > 98 | > 50 | – | > 32 | 2.8 |
| Cc1cc(OP(=O)(N[C@@H](C)C(=O)OCc2ccccc2)OC[C@H]2O[C@@H](n3ccc(=O)[nH]c3=O)C3(CC3)[C@@H]2O)c(C(C)C)cc1Cl (stereo partly drawn) [Compound 2] | > 32 | > 50 | – | > 32 | 14.3 |
| CC(C)OC(=O)[C@H](C)NP(=O)(OC[C@H]1O[C@@H](n2ccc(=O)[nH]c2=O)C2(CC2)[C@@H]1O)Oc1ccccc1 (stereo partly drawn) [Compound 3] | > 98 | > 98 | – | > 98 | 9.6 |
| CC(C)(NP(=O)(OC[C@H]1O[C@@H](n2ccc(=O)[nH]c2=O)C2(CC2)[C@@H]1O)Oc1ccccc1)C(=O)OCc1ccccc1 (stereo partly drawn) [Compound 4] | > 98 | > 98 | – | > 98 | 23.9 |
| CCOC(=O)[C@H](C)NP(=O)(OC[C@H]1O[C@@H](n2ccc(=O)[nH]c2=O)C2(CC2)[C@@H]1O)Oc1ccccc1 (stereo partly drawn) [Compound 5] | > 98 | > 90 | – | > 98 | 9.2 |
| O=C(CNP(=O)(OC[C@H]1O[C@@H](n2ccc(=O)[nH]c2=O)C2(CC2)[C@@H]1O)Oc1cccc2ccccc12)OCc1ccccc1 (stereo partly drawn) [Compound 6] | > 98 | > 90 | – | > 98 | 16.5 |
| C[C@H](NP(=O)(OC[C@H]1O[C@@H](n2ccc(=O)[nH]c2=O)C2(CC2)[C@@H]1O)Oc1ccc(Cl)cc1)C(=O)OCc1ccccc1 (stereo partly drawn) [Compound 7] | > 90 | > 90 | – | > 64 | 6.1 |
| CCOC(=O)[C@H](C)NP(=O)(OC[C@H]1O[C@@H](n2ccc(=O)[nH]c2=O)C2(CC2)[C@@H]1O)Oc1ccc(Cl)cc1 (stereo partly drawn) [Compound 8] | > 98 | > 98 | – | > 98 | 5.9 |
| C[C@H](NP(=O)(OC[C@H]1O[C@@H](n2ccc(=O)[nH]c2=O)C2(CC2)[C@@H]1O)Oc1ccccc1)C(=O)OCc1ccccc1 (stereo partly drawn) [Compound 9] | > 98 | > 85 | – | > 98 | 2.9 |
| CCCC(CCC)COC(=O)[C@H](C)NP(=O)(OC[C@H]1O[C@@H](n2ccc(=O)[nH]c2=O)C2(CC2)[C@@H]1O)Oc1ccccc1 (stereo partly drawn) [Compound 10] | > 32 | > 60 | – | 29 | 2.8 |
| C[C@H](NP(=O)(OC[C@H]1O[C@@H](n2ccc(=O)[nH]c2=O)C2(CC2)[C@@H]1O)Oc1ccccc1)C(=O)OCC(C)(C)C (stereo partly drawn) [Compound 11] | > 98 | > 98 | – | > 98 | 2.8 |
| CCCCOC(=O)[C@H](C)NP(=O)(OC[C@H]1O[C@@H](n2ccc(=O)[nH]c2=O)C2(CC2)[C@@H]1O)Oc1ccccc1 (stereo partly drawn) [Compound 12] | > 98 | > 98 | – | > 98 | 3.1 |
| CC(C)COC(=O)[C@H](C)NP(=O)(OC[C@H]1O[C@@H](n2ccc(=O)[nH]c2=O)C2(CC2)[C@@H]1O)Oc1ccccc1 (stereo partly drawn) [Compound 13] | > 98 | > 98 | – | > 98 | 3.2 |
| C[C@H](NP(=O)(OC[C@H]1O[C@@H](n2ccc(=O)[nH]c2=O)C2(CC2)[C@@H]1O)Oc1ccccc1)C(=O)OC1CCCC1 (stereo partly drawn) [Compound 14] | > 98 | > 98 | – | > 98 | 3.3 |
| CCCCOC(=O)[C@H](C)NP(=O)(OC[C@H]1O[C@@H](n2ccc(=O)[nH]c2=O)C2(CC2)[C@@H]1O)Oc1cccc2ccccc12 (stereo partly drawn) [Compound 15] | > 98 | > 60 | – | > 60 | 3.6 |
| C[C@H](NP(=O)(OC[C@H]1O[C@@H](n2ccc(=O)[nH]c2=O)C2(CC2)[C@@H]1O)Oc1ccc2c(ccn2C(=O)OC(C)(C)C)c1)C(=O)OCc1ccccc1 (stereo partly drawn) [Compound 16] | > 32 | > 98 | – | > 32 | 4.2 |
| CCOC(=O)[C@H](Cc1ccccc1)NP(=O)(OC[C@H]1O[C@@H](n2ccc(=O)[nH]c2=O)C2(CC2)[C@@H]1O)Oc1ccccc1 (stereo partly drawn) [Compound 17] | > 98 | > 98 | – | > 98 | 4.4 |
| C=CCCCCOC(=O)[C@H](C)NP(=O)(OC[C@H]1O[C@@H](n2ccc(=O)[nH]c2=O)C2(CC2)[C@@H]1O)Oc1ccc(CC=C)cc1OC (stereo partly drawn) [Compound 18] | > 98 | > 98 | – | > 64 | 5.1 |
| C[C@H](NP(=O)(OC[C@H]1O[C@@H](n2ccc(=O)[nH]c2=O)C2(CC2)[C@@H]1O)Oc1ccc(C(C)(C)C)cc1)C(=O)OCc1ccccc1 (stereo partly drawn) [Compound 19] | > 32 | > 32 | – | > 32 | 7.2 |
| C[C@H](NP(=O)(OC[C@H]1O[C@@H](n2ccc(=O)[nH]c2=O)C2(CC2)[C@@H]1O)Oc1ccc2[nH]ccc2c1)C(=O)OCc1ccccc1 (stereo partly drawn) [Compound 20] | > 32 | > 98 | – | > 98 | 7.6 |
| CC[C@H](NP(=O)(OC[C@H]1O[C@@H](n2ccc(=O)[nH]c2=O)C2(CC2)[C@@H]1O)Oc1ccccc1)C(=O)OCc1ccccc1 (stereo partly drawn) [Compound 21] | > 98 | > 98 | – | > 80 | 7.8 |
| CCOC(=O)c1ccccc1OP(=O)(N[C@@H](C)C(=O)OCc1ccccc1)OC[C@H]1O[C@@H](n2ccc(=O)[nH]c2=O)C2(CC2)[C@@H]1O (stereo partly drawn) [Compound 34] | > 98 | – | – | – | 11 |
